Reference: US10111882B2, “SYK inhibitors” (Gilead Sciences, Inc., priority 2016, dated 2018)
“And” between values parts separate entries of the source, which are not always exact repeats. Equal entries are not always repeated.

What was measured:
[1] = clinical; Nijjar J. S., et al., Rheumatology 2013; cited from earlier work
[2] = tested on: patients with previously untreated AML; assay: Phase 1b/2 study (NCT02343939): response (complete remission) to entospletinib monotherapy lead-in followed by daunorubicin/cytarabine induction; format: in vivo, human
Excerpt: (§1) Patients with residual disease two weeks after chemotherapy received a second induction cycle identical to the first.

[3] = tested on: patients with previously untreated AML; assay: Phase 1b/2 study (NCT02343939): platelet counts and platelet transfusions (FIG. 2, FIG. 3); format: in vivo, human; details: for mean number of platelet transfusions required per subject: across monotherapy lead-in and induction cycles; for mean number of transfusions required per subject: induction treatment
Excerpt: as §1

[4] = tested on: patients with previously untreated AML; assay: Phase 1b/2 study (NCT02343939): tolerability, dose limiting toxicity and adverse events
Excerpt: as §1

[5] = tested on: patients with previously untreated AML; assay: Phase 1b/2 study (NCT02343939): absolute neutrophil counts / neutrophil recovery (FIG. 1)
Excerpt: as §1

COc1cc(Nc2ncc(F)c(Nc3ccc4c(n3)N(COP(=O)(O)O)C(=O)C(C)(C)O4)n2)cc(OC)c1OC [Fostamatinib]
adverse side effects [1]: hypertension, neutropenia and transaminitis

c1cn2cc(-c3ccc4cn[nH]c4c3)nc(Nc3ccc(N4CCOCC4)cc3)c2n1 [entospletinib]
patients requiring a second induction ([2]; 200 mg BID, 3 patients): two required a second induction
patients requiring a second induction ([2]; 400 mg BID, 6 patients): none required a second induction
response after the 14 day entospletinib monotherapy window ([2]; person with 11q23-rearranged AML, prior to chemotherapy): morphologic and cytogenetic CR
platelet transfusions during monotherapy window ([3]; 200 mg dose level): One subject received platelet transfusions
platelet transfusions during monotherapy window ([3]; 400 mg dose level): no transfusions were required
mean number of platelet transfusions required per subject ([3]; 200 mg dose level): 8.7
mean number of platelet transfusions required per subject ([3]; 400 mg dose level): 4.1
mean number of platelet transfusions required per subject ([3]; overall (both dose levels)): 5.5
platelet response during the window period ([3]; another patient with 11q23-rearranged AML, monotherapy window): significant platelet response
mean number of transfusions required per subject ([3]; Cycle 1 (with daunorubicin/cytarabine)): 4.1
mean number of transfusions required per subject ([3]; Cycle 2 (with daunorubicin/cytarabine)): 5.5
platelet count ([3]; two week entospletinib monotherapy window): remained stable, or in some cases, improved from baseline
dose limiting toxicity (DLT) ([4]; 200 mg BID po, three patients): no DLT was observed
dose limiting toxicity (DLT) ([4]; 400 mg BID po, 3 additional patients (DL 1 expansion)): none of whom experienced DLT
adverse event possibly related to entospletinib ([4]; 400 mg BID po, one of three patients (documented fungal pneumonia), did not meet DLT criteria): grade 3 pneumonitis
tolerability of single-agent entospletinib ([4]; monotherapy window period (up to 14 days), before chemotherapy): well tolerated
most common non hematologic adverse events ([4]; overall, inclusive of intensive chemotherapy periods (daunorubicin + cytarabine)): febrile neutropenia, nausea, and diarrhea
recovery time from severe neutropenia ([5]; 200 mg dose level, only evaluable subject with severe neutropenia at baseline): 66 days
ANC recovered to during treatment ([5]; 400 mg dose level, all three evaluable subjects under severe neutropenia cutoff of 200/μL ANC at baseline): above 200 /μL
individual time to recovery from severe neutropenia ([5]; 400 mg dose level, individual subjects with severe neutropenia at baseline): 8 days (2×) and 14 days
subjects experiencing severe neutropenia during monotherapy lead-in ([5]; 400 mg dose level, subjects without severe neutropenia at baseline, recovered to above 200/μL by end of first induction cycle): two of the five subjects
median (Q1, Q3) time to recovery from severe neutropenia ([5]; 400 mg dose level, three subjects with severe neutropenia at baseline): 8 (8, 14) days
absolute neutrophil counts (ANC) ([5]; entospletinib monotherapy lead-in period): remained largely stable
severe neutropenia during induction treatment ([5]; five subjects (both dose levels) without severe neutropenia at baseline): none experienced severe neutropenia
